As a reminder, the EC50 is the concentration that produces a half-maximal response.

Here are results for 32 compounds from patent US10913727B2, “Modulators of the integrated stress pathway” (Calico Life Sciences LLC, priority 2016, dated 2021).

In this experiment the test system is HEK293T cells carrying the ATF4 luciferase reporter. The experiment is described as follows: ATF4-Luc assay, in vitro model of Vanishing Cell White Matter Disease (VWMD). Type of experiment: cell-based. The settings on record: Homo sapiens, HEK-293T, 1 μg/mL tunicamycin, 7 hours, One Glo luminescence. The procedure, abridged: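 Stable HEK293T line with human ATF4 5′-UTR–firefly luciferase reporter treated with 1 μg/mL tunicamycin plus 200 nM compound for 7 h. Luminescence read; EC50 derived.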
Regarding `CC(=O)Nc1cncc(C(=O)NC23CC(NC(=O)COc4ccc(Cl)c(F)c4)(C2)C3)c1` [Compound 822, 5-acetamido-N-{3-[2-(4-chloro-3-fluorophenoxy)acetamido]bicyclo[1.1.1]pentan-1-yl}pyridine-3-carboxamide], the EC50 was more than 2 µM.

With `Cn1nc(C(=O)NC23CC(NC(=O)COc4ccc(Cl)c(F)c4)(C2)C3)c2ccccc21` [Compound 823, N-{3-[2-(4-chloro-3-fluorophenoxy)acetamido]bicyclo[1.1.1]pentan-1-yl}-1-methyl-1H-indazole-3-carboxamide], the concentration for a half-maximal effect (EC50) was more than 2 µM.

On to `CCc1noc(C)c1C(=O)NC12CC(NC(=O)COc3ccc(Cl)c(F)c3)(C1)C2` [Compound 824, N-{3-[2-(4-chloro-3-fluorophenoxy)acetamido]bicyclo[1.1.1]pentan-1-yl}-3-ethyl-5-methyl-1,2-oxazole-4-carboxamide], for which the EC50 is more than 2 µM.

In the case of `CCn1cc(C(=O)NC23CC(NC(=O)COc4ccc(Cl)c(F)c4)(C2)C3)c(C)n1` [Compound 825, N-{3-[2-(4-chloro-3-fluorophenoxy)acetamido]bicyclo[1.1.1]pentan-1-yl}-1-ethyl-3-methyl-1H-pyrazole-4-carboxamide], the EC50 fell in the range of 0.25 to 1 µM.

With `NC(=O)c1ccncc1C(=O)NC12CC(NC(=O)COc3ccc(Cl)c(F)c3)(C1)C2` [Compound 826, N^3-{3-[2-(4-chloro-3-fluorophenoxy)acetamido]bicyclo[1.1.1]pentan-1-yl}pyridine-3,4-dicarboxamide], the EC50 fell in the range of 1 to 2 µM.

`CS(=O)(=O)c1ccccc1C(=O)NC12CC(NC(=O)COc3ccc(Cl)c(F)c3)(C1)C2` [Compound 827, N-{3-[2-(4-chloro-3-fluorophenoxy)acetamido]bicyclo[1.1.1]pentan-1-yl}-2-(methanesulfonyl)benzamide]: the EC50 is more than 2 µM.

For `CSc1ncccc1C(=O)NC12CC(NC(=O)COc3ccc(Cl)c(F)c3)(C1)C2` [Compound 828, N-{3-[2-(4-chloro-3-fluorophenoxy)acetamido]bicyclo[1.1.1]pentan-1-yl}-2-(methylsulfanyl)pyridine-3-carboxamide], the EC50 was more than 2 µM.

In the case of `COc1cccc(C(=O)NC23CC(NC(=O)COc4ccc(Cl)c(F)c4)(C2)C3)n1` [Compound 829, N-{3-[2-(4-chloro-3-fluorophenoxy)acetamido]bicyclo[1.1.1]pentan-1-yl}-6-methoxypyridine-2-carboxamide], the EC50 was in the range of 0.05 to 0.25 µM.

For `CSCc1ccc(C(=O)NC23CC(NC(=O)COc4ccc(Cl)c(F)c4)(C2)C3)o1` [Compound 830, N-{3-[2-(4-chloro-3-fluorophenoxy)acetamido]bicyclo[1.1.1]pentan-1-yl}-5-[(methylsulfanyl)methyl]furan-2-carboxamide], the EC50 is 0.05 to 0.25 µM.

Consider `Cc1ccc(F)c(C(=O)NC23CC(NC(=O)COc4ccc(Cl)c(F)c4)(C2)C3)n1` [Compound 832, N-{3-[2-(4-chloro-3-fluorophenoxy)acetamido]bicyclo[1.1.1]pentan-1-yl}-3-fluoro-6-methylpyridine-2-carboxamide], for which the half-maximal effective concentration (EC50) was 0.05 to 0.25 µM.

As to `Cc1cnc2cc(C(=O)NC34CC(NC(=O)COc5ccc(Cl)c(F)c5)(C3)C4)nn2c1` [Compound 833, N-{3-[2-(4-chloro-3-fluorophenoxy)acetamido]bicyclo[1.1.1]pentan-1-yl}-6-methylpyrazolo[1,5-a]pyrimidine-2-carboxamide], the EC50 lay within 1 to 2 µM.

Regarding `O=C(COc1ccc(Cl)c(F)c1)NC12CC(NC(=O)c3ccc4ncoc4c3)(C1)C2` [Compound 834, N-{3-[2-(4-chloro-3-fluorophenoxy)acetamido]bicyclo[1.1.1]pentan-1-yl}-1,3-benzoxazole-6-carboxamide], the EC50 lay within 0.25 to 1 µM.

On to `Cn1cc(-c2cc(C(=O)NC34CC(NC(=O)COc5ccc(Cl)c(F)c5)(C3)C4)on2)cn1` [Compound 835, N-{3-[2-(4-chloro-3-fluorophenoxy)acetamido]bicyclo[1.1.1]pentan-1-yl}-3-(1-methyl-1H-pyrazol-4-yl)-1,2-oxazole-5-carboxamide], for which the EC50 fell in the range of 1 to 2 µM.

As to `CCn1nc(C(=O)NC23CC(NC(=O)COc4ccc(Cl)c(F)c4)(C2)C3)cc1C` [Compound 836, N-{3-[2-(4-chloro-3-fluorophenoxy)acetamido]bicyclo[1.1.1]pentan-1-yl}-1-ethyl-5-methyl-1H-pyrazole-3-carboxamide], the EC50 was more than 2 µM.

As for `Cc1nc(C(F)(F)F)c(C(=O)NC23CC(NC(=O)COc4ccc(Cl)c(F)c4)(C2)C3)s1` [Compound 837, N-{3-[2-(4-chloro-3-fluorophenoxy)acetamido]bicyclo[1.1.1]pentan-1-yl}-2-methyl-4-(trifluoromethyl)-1,3-thiazole-5-carboxamide], the EC50 is more than 2 µM.

As to `CSc1nccc(C(=O)NC23CC(NC(=O)COc4ccc(Cl)c(F)c4)(C2)C3)n1` [Compound 838, N-{3-[2-(4-chloro-3-fluorophenoxy)acetamido]bicyclo[1.1.1]pentan-1-yl}-2-(methylsulfanyl)pyrimidine-4-carboxamide], the EC50 is 0.05 to 0.25 µM.

On to `O=C(COc1ccc(Cl)c(F)c1)NC12CC(NC(=O)c3ccccc3-n3cccn3)(C1)C2` [Compound 839, N-{3-[2-(4-chloro-3-fluorophenoxy)acetamido]bicyclo[1.1.1]pentan-1-yl}-2-(1H-pyrazol-1-yl)benzamide], for which the EC50 is more than 2 µM.

For the compound `Cc1c(-c2cc(C(=O)NC34CC(NC(=O)COc5ccc(Cl)c(F)c5)(C3)C4)no2)cnn1C` [Compound 840, N-{3-[2-(4-chloro-3-fluorophenoxy)acetamido]bicyclo[1.1.1]pentan-1-yl}-5-(1,5-dimethyl-1H-pyrazol-4-yl)-1,2-oxazole-3-carboxamide], the EC50 was in the range of 1 to 2 µM.

Consider `Cn1c(C(=O)NC23CC(NC(=O)COc4ccc(Cl)c(F)c4)(C2)C3)cc2sccc21` [Compound 841, N-{3-[2-(4-chloro-3-fluorophenoxy)acetamido]bicyclo[1.1.1]pentan-1-yl}-4-methyl-4H-thieno[3,2-b]pyrrole-5-carboxamide], for which the half-maximal effective concentration (EC50) lay within 0.25 to 1 µM.

For `Cc1cc(C(=O)NC23CC(NC(=O)COc4ccc(Cl)c(F)c4)(C2)C3)c(C)n1C1CC1` [Compound 842, N-{3-[2-(4-chloro-3-fluorophenoxy)acetamido]bicyclo[1.1.1]pentan-1-yl}-1-cyclopropyl-2,5-dimethyl-1H-pyrrole-3-carboxamide], the concentration giving a half-maximal response (EC50) was more than 2 µM.

`Cc1cnc2cccc(C(=O)NC34CC(NC(=O)COc5ccc(Cl)c(F)c5)(C3)C4)c2n1` [Compound 843, N-{3-[2-(4-chloro-3-fluorophenoxy)acetamido]bicyclo[1.1.1]pentan-1-yl}-3-methylquinoxaline-5-carboxamide]: the EC50 is more than 2 µM.

As to `O=C(COc1ccc(Cl)c(F)c1)NC12CC(NC(=O)c3nnc4n3CCCC4)(C1)C2` [Compound 844, N-{3-[2-(4-chloro-3-fluorophenoxy)acetamido]bicyclo[1.1.1]pentan-1-yl}-5,6,7,8-tetrahydro[1,2,4]triazolo[4,3-a]pyridine-3-carboxamide], the EC50 is more than 2 µM.

As to `Cc1nnsc1C(=O)NC12CC(NC(=O)COc3ccc(Cl)c(F)c3)(C1)C2` [Compound 845, N-{3-[2-(4-chloro-3-fluorophenoxy)acetamido]bicyclo[1.1.1]pentan-1-yl}-4-methyl-1,2,3-thiadiazole-5-carboxamide], the EC50 is more than 2 µM.

With `Cc1nn(C)cc1C(=O)NC12CC(NC(=O)COc3ccc(Cl)c(F)c3)(C1)C2` [Compound 846, N-{3-[2-(4-chloro-3-fluorophenoxy)acetamido]bicyclo[1.1.1]pentan-1-yl}-1,3-dimethyl-1H-pyrazole-4-carboxamide], the EC50 was 1 to 2 µM.

With `Cc1nc(C)c(C(=O)NC23CC(NC(=O)COc4ccc(Cl)c(F)c4)(C2)C3)o1` [Compound 847, N-{3-[2-(4-chloro-3-fluorophenoxy)acetamido]bicyclo[1.1.1]pentan-1-yl}-2,4-dimethyl-1,3-oxazole-5-carboxamide], the EC50 was in the range of 0.25 to 1 µM.

With `Cc1cc(C(=O)NC23CC(NC(=O)COc4ccc(Cl)c(F)c4)(C2)C3)nn1C` [Compound 848, N-{3-[2-(4-chloro-3-fluorophenoxy)acetamido]bicyclo[1.1.1]pentan-1-yl}-1,5-dimethyl-1H-pyrazole-3-carboxamide], the EC50 was less than 0.05 µM.

Regarding `O=C(COc1ccc(Cl)c(F)c1)NC12CC(NC(=O)c3ccc(Cn4cncn4)cc3)(C1)C2` [Compound 849, N-{3-[2-(4-chloro-3-fluorophenoxy)acetamido]bicyclo[1.1.1]pentan-1-yl}-4-[(1H-1,2,4-triazol-1-yl)methyl]benzamide], the EC50 lay in the range of 1 to 2 µM.

Regarding `CCn1ccc(C(=O)NC23CC(NC(=O)COc4ccc(Cl)c(F)c4)(C2)C3)n1` [Compound 850, N-{3-[2-(4-chloro-3-fluorophenoxy)acetamido]bicyclo[1.1.1]pentan-1-yl}-1-ethyl-1H-pyrazole-3-carboxamide], the EC50 was 0.05 to 0.25 µM.

With `CS(=O)(=O)Nc1cccc(C(=O)NC23CC(NC(=O)COc4ccc(Cl)c(F)c4)(C2)C3)c1` [Compound 851, N-{3-[2-(4-chloro-3-fluorophenoxy)acetamido]bicyclo[1.1.1]pentan-1-yl}-3-[(methanesulfonyl)amino]benzamide], the EC50 lay within 0.25 to 1 µM.

`O=C(COc1ccc(Cl)c(F)c1)NC12CC(NC(=O)c3cocn3)(C1)C2` [Compound 852, N-{3-[2-(4-chloro-3-fluorophenoxy)acetamido]bicyclo[1.1.1]pentan-1-yl}-1,3-oxazole-4-carboxamide]: the EC50 was 1 to 2 µM.

With `NC(=O)c1nccnc1C(=O)NC12CC(NC(=O)COc3ccc(Cl)c(F)c3)(C1)C2` [Compound 853, N-2-{3-[2-(4-chloro-3-fluorophenoxy)acetamido]bicyclo[1.1.1]pentan-1-yl}pyrazine-2,3-dicarboxamide], the half-maximal effective concentration (EC50) is more than 2 µM.

As to `O=C(COc1ccc(Cl)c(F)c1)NC12CC(NC(=O)c3onc4c3CCCC4)(C1)C2` [Compound 854, N-{3-[2-(4-chloro-3-fluorophenoxy)acetamido]bicyclo[1.1.1]pentan-1-yl}-4,5,6,7-tetrahydro-2,1-benzoxazole-3-carboxamide], the EC50 was more than 2 µM.
